2 molecules from patent US20210198277A1, “AMINE-SUBSTITUTED ARYL OR HETEROARYL COMPOUNDS” (Epizyme, Inc., priority 2016, published 2021) can be followed below.

Each structure is given as a SMILES string.

This assay concerns the target T1, EHMT1 (Homo sapiens, UniProt Q9H9B1).
T1 sequence (Q9H9B1 1-1298): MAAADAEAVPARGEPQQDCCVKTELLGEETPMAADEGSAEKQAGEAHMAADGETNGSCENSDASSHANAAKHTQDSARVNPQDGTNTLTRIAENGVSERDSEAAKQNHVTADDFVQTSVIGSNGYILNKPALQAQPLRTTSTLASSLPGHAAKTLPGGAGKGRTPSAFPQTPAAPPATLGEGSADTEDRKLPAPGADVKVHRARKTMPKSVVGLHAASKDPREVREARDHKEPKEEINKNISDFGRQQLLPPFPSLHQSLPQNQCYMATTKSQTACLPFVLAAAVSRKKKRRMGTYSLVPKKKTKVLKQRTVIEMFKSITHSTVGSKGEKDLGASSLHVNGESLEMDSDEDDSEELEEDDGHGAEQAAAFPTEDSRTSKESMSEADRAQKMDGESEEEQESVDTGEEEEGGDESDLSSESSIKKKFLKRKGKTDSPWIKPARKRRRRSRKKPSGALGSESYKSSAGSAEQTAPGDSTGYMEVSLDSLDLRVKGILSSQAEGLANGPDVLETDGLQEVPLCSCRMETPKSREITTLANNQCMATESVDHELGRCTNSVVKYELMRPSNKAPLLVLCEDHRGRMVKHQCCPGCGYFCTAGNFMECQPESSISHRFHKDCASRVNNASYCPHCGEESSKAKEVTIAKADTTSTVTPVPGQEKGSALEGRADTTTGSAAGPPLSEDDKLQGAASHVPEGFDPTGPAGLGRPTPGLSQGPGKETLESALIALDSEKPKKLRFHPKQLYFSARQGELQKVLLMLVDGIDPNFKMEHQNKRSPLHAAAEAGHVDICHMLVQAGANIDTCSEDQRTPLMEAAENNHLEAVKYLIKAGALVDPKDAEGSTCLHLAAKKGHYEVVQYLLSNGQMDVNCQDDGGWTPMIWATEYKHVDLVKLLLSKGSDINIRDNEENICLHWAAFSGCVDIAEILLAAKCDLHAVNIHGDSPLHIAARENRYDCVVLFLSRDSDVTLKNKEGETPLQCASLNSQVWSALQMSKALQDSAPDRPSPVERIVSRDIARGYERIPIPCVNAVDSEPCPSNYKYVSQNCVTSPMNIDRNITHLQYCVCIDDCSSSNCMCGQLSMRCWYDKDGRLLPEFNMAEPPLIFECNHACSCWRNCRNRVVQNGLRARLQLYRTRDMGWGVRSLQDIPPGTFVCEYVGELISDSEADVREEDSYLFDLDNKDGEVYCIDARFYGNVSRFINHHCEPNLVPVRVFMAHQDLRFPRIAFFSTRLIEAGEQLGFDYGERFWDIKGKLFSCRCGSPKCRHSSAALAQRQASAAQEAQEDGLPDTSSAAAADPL
The experiment in a line: EHMT1 enzyme assay on peptide substrate (EHMT1 PEP). Format: biochemical. The conditions noted are these: read-out: EHMT1 PEP (IC50 μM).

Consider `CNc1ccnc(N[C@@H]2CC[C@H](N)C2)n1` [Compound 548, N^2-((1R,3S)-3-aminocyclopentyl)-N^4-methylpyrimidine-2,4-diamine], for which the 50% inhibitory concentration (IC50) is more than 10 µM.

With `CNc1cc(C)nc(Nc2ccc(OC)c(OCC3CN(C4CCC4)C3)c2)n1` [Compound 576], the IC50 is less than 0.1 µM.
